For one series, the system named is B. megaterium Bm11. The format is cell-based, Bacillus megaterium. The procedure, abridged: (§1)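 MICs were determined by broth microdilution, with bacteria at a final 1 × 10^6 CFU/mL and peptides tested from 100 to 0.78 μM.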
Series [1] deals with HaCaT cells (human immortalized keratinocytes). Kind of series: Cytotoxicity, MTT assay. The format is cell-based. The method, then:
In particular, the cytotoxicity was evaluated by the 3-(4,5-dimethylthiazol-2-yl)-2,5-diphenyltetrazolium bromide (MTT) assay and is expressed as the percentage of viability of peptide-treated cells compared to that of untreated control cells. As expected, after 2 and 24 h treatments, the cell viability decreased in a concentration-dependent manner for all peptides (Figure 2).
Figure 2 Viability of peptide-treated HaCaT cells evaluated by MTT assay at 2 h (a) and 24 h (b). All data are expressed as a percentage with respect to the untreated control cells and are the mean of three independent experiments ± standard error of the mean (SEM).
The human immortalized keratinocytes HaCaT cells (AddexBio, San Diego, CA) were cultured in Dulbecco’s modified Eagle’s medium containing 4 mM glutamine (DMEMg), supplemented with 10% heat-inactivated fetal bovine serum (FBS) and 0.1 mg/mL of penicillin and streptomycin, at 37 °C and 5% CO2, in 25 or 75 cm^2 flasks.
The quantification of cell viability was performed by the in vitro MTT [3-(4,5-dimethylthiazol-2-yl)-2,5-diphenyltetrazolium bromide] assay, as previously reported,[77] measuring the conversion of the soluble yellow dye MTT to insoluble purple formazan by mitochondrial dehydrogenases. More precisely, 4 × 10^4 HaCaT cells, suspended in DMEMg supplemented with 2% FBS without antibiotics, were plated in each well of the 96-well plate. After overnight incubation at 37 °C and 5% CO2, the medium of each well was replaced by DMEMg containing the peptide at different concentrations, as indicated. Controls were HaCaT cells not treated with the peptide. After 2 and 24 h of incubation at 37 °C and 5% CO2, the medium was discarded; 0.5 mg/mL of MTT in Hank’s buffer was added to each well, and the plate was incubated for further 4 h. Acidified isopropanol was then added to dissolve formazan crystals, and the absorbance of each well at 570 nm was measured using a microplate reader (Infinite M200; Tecan, Salzburg, Austria). The purple color intensity is directly proportional to the number of viable cells, which was expressed as a percentage compared to that of untreated control cells (100%).

For another series, the system named is S. aureus ATCC 25923. The format is cell-based, Staphylococcus aureus. The procedure, abridged:
as §1

Series [2] has as its system S. epidermidis ATCC 12228. In kind it is cell-based, Staphylococcus epidermidis. In outline: as §1
A further series concerns E. coli ATCC 25922. In kind it is cell-based, Escherichia coli. The procedure, abridged: as §1
The nature of another series: ANTS/DPX leakage assay. The note with it: peptide 5–50 μM, 10 min. As to the method:
The destabilization of membrane vesicles by 12 was explored measuring its effect on the release of encapsulated fluorophores in both LUVs mimicking Gram-positive and Gram-negative membranes. ANTS and DPX fluorophores were encapsulated in LUVs, and ANTS release was measured to evaluate the transient pore formation.
The dry lipid films (Cf = 100 μM) were dissolved with a solution of ANTs (12.5 mM) and DPX (45 mM) in water (2 mL) and then lyophilized overnight. The lipid films with encapsulated ANTS and DPX were hydrated with PBS 1× buffer and treated to obtain LUVs using the extrusion method.[81] Then, nonencapsulated ANTs and DPX were separated from liposomes by gel filtration using a Sephadex G-50 column (1.5 cm × 10 cm) at room temperature. Initially, liposomes contain both ANTs and DPX, and DPX efficiently quenches ANT fluorescence by collisional transfer.[82] When LUVs were treated with peptide concentrations of 5, 10, 15, 20, 30, and 50 μM, we measured the leakage of vesicles by measuring the dequenching of ANTS released into the medium. Changes in the fluorescence of 2 mL of ANTS/DPX LUV samples were monitored setting an excitation fluorescence at 385 nm (slit width, 5 nm) and a fluorescence emission at 512 nm (slit width, 5 nm) for 10 min after the addition of the peptide. […]

Converted amounts (≈) assume the structure as drawn. Bridge positions count the residues as written; N and C are the ends. Square brackets hold non-standard residues; d marks the D form. Peptide text beside a SMILES is read from it. Where only a bound is given, the exact number is not on record here.

Turning to `CC[C@H](C)[C@H](NC(=O)[C@H](CCCNC(=N)N)NC(=O)[C@@H]1CCCCn2cc(nn2)C[C@H](NC(=O)[C@H](Cc2ccccc2)NC(=O)[C@H](Cc2c[nH]c3ccccc23)NC(=O)[C@@H]2CCCN2C(=O)[C@@H](NC(=O)[C@@H](N)Cc2ccccc2)C(C)C)C(=O)N[C@@H](CCCCN)C(=O)N[C@@H](Cc2ccccc2)C(=O)NC(CC(C)C)C(=O)N1)C(=O)N[C@@H](CC(C)C)C(N)=O` (stereo in doubt) [compound 17], in the series on B. megaterium Bm11, the “MIC B. megaterium Bm11” value came out at 1.56 µM (≈ 2.67 µg/mL). Further, the HaCaT cell viability in series [1] (2 h treatment, 25 μM, vs untreated control, mean of three independent experiments) is 60–70%; in series [1] (2 h treatment, 50 μM, vs untreated control, mean of three independent experiments) it was “less than 40%”; in series [1] (24 h treatment (sentence continues from 50 μM), vs untreated control), “less than 20%”. In the series with S. aureus ATCC 25923, the “MIC S. aureus ATCC 25923” value is 3.12 µM (≈ 5.35 µg/mL). In addition, in series [2], the “MIC S. epidermidis ATCC 12228” value was determined as 1.56 µM (≈ 2.67 µg/mL). Also, the “MIC E. coli ATCC 25922” value in the series on E. coli ATCC 25922 is greater than 100 µM.

For the compound `CC[C@H](C)[C@H](NC(=O)[C@H](CCCNC(=N)N)NC(=O)[C@@H]1CCC(=O)NCCCC[C@H](NC(=O)[C@H](Cc2ccccc2)NC(=O)[C@H](Cc2c[nH]c3ccccc23)NC(=O)[C@@H]2CCCN2C(=O)[C@@H](NC(=O)[C@@H](N)Cc2ccccc2)C(C)C)C(=O)N[C@@H](CCCCN)C(=O)N[C@@H](Cc2ccccc2)C(=O)N[C@H](CC(C)C)C(=O)N1)C(=O)N[C@@H](CC(C)C)C(N)=O` [compound 12] (H-FVPWFKKF[dL]ERIL-NH2; lactam 6-10), the “MIC B. megaterium Bm11” value in the series on B. megaterium Bm11 amounted to 1.56 µM (≈ 2.66 µg/mL). Moreover, the HaCaT cell viability in series [1] (25 μM, same profile after either 2 or 24 h) is 94%; in series [1] (50 μM, same profile after either 2 or 24 h) it was 60%. For the same compound, in the series on S. aureus ATCC 25923, the “MIC S. aureus ATCC 25923” value amounted to 3.12 µM (≈ 5.32 µg/mL). Moreover, the “MIC S. epidermidis ATCC 12228” value in series [2] is 3.12 µM (≈ 5.32 µg/mL). In addition, the figures for the “leakage of LUVs (ANTS release)” value in the series “ANTS/DPX leakage assay” (LUVs mimicking Gram-negative membranes) and in “ANTS/DPX leakage assay” (LUVs mimicking Gram-positive membranes) were “significant leakage ability” and “low leakage effect”, respectively. Moreover, the “MIC E. coli ATCC 25922” value in the series with E. coli ATCC 25922 was 25 µM (≈ 42.6 µg/mL).

(Values after publication PMC8389922, “First-in-Class Cyclic Temporin L Analogue: Design, Synthesis, and Antimicrobial Assessment” (Journal of Medicinal Chemistry, 2021).)
